This is an account of results in ChEMBL document CHEMBL3046888, “Antiviral and Antifungal Activities of Some Naphthoquinones Isolated from the Roots of Lithospermum erythrorhizon” (J Pestic Sci, 1998).

Active and inactive are the calls of the source. The calls are words filed in the database; no cut-off is given here.

In data set [1] the test system is Tobacco mosaic virus. The data set is described as follows: Antiviral activity against Tobacco mosaic virus (TMV) in compound treated tobacco leaf assessed as growth inhibition at 5 mM at 25 degC for 3 days (16 hr in light) by half-leaf method. It counts as functional.
Data set [2] relates to Tobacco mosaic virus. Nature of the data set: Antiviral activity against Tobacco mosaic virus (TMV) in compound treated tobacco leaf assessed as growth inhibition at 25 mM at 25 degC for 3 days (16 hr in light) by half-leaf method. It counts as functional. Set-up: dose or concentration left out as unconfirmed.
Data set [3] concerns Cladosporium herbarum. Nature of the data set: Antifungal activity against Cladosporium herbarum assessed as inhibition at 50 nmol in 8 mm disk. The class given is functional.
Data set [4] concerns Cladosporium herbarum. Nature of the data set: Antifungal activity against Cladosporium herbarum assessed as inhibition at 1250 nmol in 8 mm disk. The class given is functional.
In data set [5] the test system is Cladosporium herbarum. Nature of the data set: Antifungal activity against Cladosporium herbarum assessed as inhibition at 10 nmol in 8 mm disk. The class given is functional.
Data set [6] has as its system Cladosporium herbarum. Nature of the data set: Antifungal activity against Cladosporium herbarum assessed as inhibition at 250 nmol in 8 mm disk. The class given is functional.
For the next data set, the system named is Nicotiana tabacum. The data set is described as follows: Phytotoxicity against Nicotiana tabacum (tobacco) plant at 25 mM. It counts as organism-based. The note with it: in vivo, 25000 µM.

The inhibition is how much of the control response was suppressed. `CCC(C)C(=O)O[C@H](CC=C(C)C)C1=CC(=O)c2c(O)ccc(O)c2C1=O` (some centres undefined): the inhibition entry in the data set on Tobacco mosaic virus [1] is “inactive”. Further, in the data set with Tobacco mosaic virus [2], the inhibition came out at 86.1%.
On to `CC(C)=CC[C@@H](OC(=O)CC(C)C)C1=CC(=O)c2c(O)ccc(O)c2C1=O`, for which the inhibition at 5000 µM with Tobacco mosaic virus [1] is 46%. The inhibition in the data set on Tobacco mosaic virus [2] is 86.1%.
As for `CCC(=O)O[C@H](CC=C(C)C)C1=CC(=O)c2c(O)ccc(O)c2C1=O`, the “diameter of the inhibition zone (DIZ)” value in the data set with Cladosporium herbarum [3] is 11.3 mm; in the data set on Cladosporium herbarum [4], 15.1 mm; in the data set on Cladosporium herbarum [5], 9.1 mm; in the data set on Cladosporium herbarum [6] it was 15.6 mm. In addition, the inhibition at 5000 µM in the data set with Tobacco mosaic virus [1] worked out at 86.1%. The inhibition with Tobacco mosaic virus [2] stood at 99.9%.
As for `CC(=O)O[C@H](CC=C(C)C)C1=CC(=O)c2c(O)ccc(O)c2C1=O` [ACETYLSHIKONIN], the “diameter of the inhibition zone (DIZ)” value came to 13 mm in the data set on Cladosporium herbarum [3], 13.4 mm in the data set on Cladosporium herbarum [4], 10.1 mm with Cladosporium herbarum [5] and 13.3 mm in the data set with Cladosporium herbarum [6]. For the same molecule, in the data set with Tobacco mosaic virus [1], the inhibition at 5000 µM stood at 73.2%. In addition, in the data set on Tobacco mosaic virus [2], the inhibition was found to be 78.7%.
Take `CC(C)=CC[C@@H](OC(=O)CC(C)(C)O)C1=CC(=O)c2c(O)ccc(O)c2C1=O` [BETA-HYDROXYISOVALERYLSHIKONIN]: the “diameter of the inhibition zone (DIZ)” value is 13.8 mm in the data set on Cladosporium herbarum [3], 17.6 mm in the data set with Cladosporium herbarum [4], 9.1 mm in the data set on Cladosporium herbarum [5] and 16 mm in the data set with Cladosporium herbarum [6]. The inhibition at 5000 µM in the data set with Tobacco mosaic virus [1] stood at 44%. Further, in the data set on Nicotiana tabacum, the Activity entry is “Toxic”.
As to `CC(C)=CCCC1=CC(=O)c2c(O)ccc(O)c2C1=O` [DEOXYSHIKONIN], the inhibition at 5000 µM with Tobacco mosaic virus [1] was 66.4%. The inhibition with Tobacco mosaic virus [2] was 87.3%.
The corresponding values for `CC(C)=CC[C@@H](OC(=O)C=C(C)C)C1=CC(=O)c2c(O)ccc(O)c2C1=O` [DIMETHYLACRYLSHIKONIN] are 26% and 70.2%.
For `CC(C)=CC[C@@H](OC(=O)C(C)C)C1=CC(=O)c2c(O)ccc(O)c2C1=O` [ISOBUTYLSHIKONIN], in that order: 49.5% and 75.5%.
As to `CC(C)=CC[C@@H](O)C1=CC(=O)c2c(O)ccc(O)c2C1=O` [SHIKONIN], the “diameter of the inhibition zone (DIZ)” value is recorded as 13.4 mm in the data set on Cladosporium herbarum [3], 15.9 mm with Cladosporium herbarum [4], 9.9 mm in the data set with Cladosporium herbarum [5] and 14.1 mm with Cladosporium herbarum [6]. In the data set with Tobacco mosaic virus [1], the inhibition entry is “inactive”. Also, in the data set on Nicotiana tabacum, the Activity result is “Toxic”.
